Data on 1 molecule can be found in ChEMBL document CHEMBL1144137, “Limonoids from Swietenia macrophylla and S. aubrevilleana” (1999).

The structures appear in SMILES notation.

The subject of this assay is Spodoptera frugiperda. Briefly: Antifeedant activity against final instar larvae of Spodoptera frugiperda assessed as antifeedant index at 1000 ppm. The assay is classed as functional.

As for `C/C=C(\C)C(=O)O[C@@H]1[C@H]2C(=O)[C@](C)([C@H]3CC[C@]4(C)[C@@H](CC(=O)O[C@H]4c4ccco4)[C@]34O[C@H]24)[C@@H]([C@@H](OC(C)=O)C(=O)OC)C1(C)C` [swietemahonin F], the Activity is 70.2%.
